Structures can show the parent of a compound that is named as a salt.
SMILES	melting point [°C]
CN/N=C(\C)C(C)(C)NCCCNC(C)(C)/C(C)=N/O (as salt: hydrochloride) [Example 2, 3,3,9,9-Tetramethyl-4,8-diazaundecane-2,10-dione 2-(2-Methylhydrazone) 10-Oxime]	175 to 177
C/C(=N\O)C(C)(C)NCCCNC(C)(C)/C(C)=N/NC(=O)c1ccccc1 (as salt: trifluoroacetate) [Example 4, 3,3,9,9-Tetramethyl-4,8-diazaundecane-2,10-dione 2-(2-Benzoylhydrazone) 10-Oxime]	95 to 96
C/C(=N\N)C(C)(C)NCCCNC(C)(C)/C(C)=N/O [Example 1, 3,3,9,9-Tetramethyl-4,8-diazaundecane-2,10-dione 2-Hydrazone 10-Oxime]	125 to 126
C/C(=N\O)C(C)(C)NCCCNC(C)(C)/C(C)=N/Nc1ccccc1 [Example 3, 3,3,9,9-Tetramethyl-4,8-diazaundecane-2,10-dione 2-(2-Phenyl-hydrazone) 10-Oxime]	145 to 146

The next lines start with the values.

melting point [°C]	SMILES
95 to 96	C/C(=N\N)C(C)(C)NCCCNC(C)(C)/C(C)=N/N [Example 5, 3,3,9,9-Tetramethyl-4,8-diazaundecane-2,10-dione Bishydrazone]
95 to 97	C/C(=N\O)C(C)(C)NCCNC(C)(C)/C(C)=N/Nc1ccccc1 [Example 6, 3,3,8,8-Tetramethyl-4,8-diazadecane-2,9-dione 2-(2-Phenylhydrazone) 9-Oxime]
